Assay results: patent US20240246942A1, “KINASE INHIBITORS FOR THE TREATMENT OF NEURODEGENERATIVE DISEASES” (priority 2020, published 2024)

Tests used:
Assay in all cases: biochemical
[1] = biological target: T1, panel of 374 wild-type kinases (Homo sapiens, UniProt Q9UBE8); conditions: read-out: % Enzyme Activity (relative to DMSO controls), NLK
T1 construct: purchased Reaction Biology Corporation
T1 sequence (Q9UBE8 1-527): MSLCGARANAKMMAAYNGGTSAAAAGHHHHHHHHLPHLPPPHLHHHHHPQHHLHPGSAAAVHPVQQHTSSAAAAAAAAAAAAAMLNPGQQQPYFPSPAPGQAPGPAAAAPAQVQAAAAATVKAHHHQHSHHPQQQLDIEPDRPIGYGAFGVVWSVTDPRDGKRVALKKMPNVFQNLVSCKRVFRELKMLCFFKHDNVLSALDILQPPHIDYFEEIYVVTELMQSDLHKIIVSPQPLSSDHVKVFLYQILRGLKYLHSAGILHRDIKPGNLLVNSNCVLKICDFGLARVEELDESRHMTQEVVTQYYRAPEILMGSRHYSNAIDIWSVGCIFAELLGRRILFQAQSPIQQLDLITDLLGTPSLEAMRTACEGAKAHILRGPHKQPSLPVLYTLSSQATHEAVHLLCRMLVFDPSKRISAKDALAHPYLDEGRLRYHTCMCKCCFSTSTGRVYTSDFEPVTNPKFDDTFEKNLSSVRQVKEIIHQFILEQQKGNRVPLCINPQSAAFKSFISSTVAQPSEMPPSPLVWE

[2] = biological target: T2, panel of 374 wild-type kinases (Homo sapiens, UniProt Q96L34); conditions: read-out: % Enzyme Activity (relative to DMSO controls), MARK4
T2 construct: purchased Reaction Biology Corporation
T2 sequence (Q96L34 1-752): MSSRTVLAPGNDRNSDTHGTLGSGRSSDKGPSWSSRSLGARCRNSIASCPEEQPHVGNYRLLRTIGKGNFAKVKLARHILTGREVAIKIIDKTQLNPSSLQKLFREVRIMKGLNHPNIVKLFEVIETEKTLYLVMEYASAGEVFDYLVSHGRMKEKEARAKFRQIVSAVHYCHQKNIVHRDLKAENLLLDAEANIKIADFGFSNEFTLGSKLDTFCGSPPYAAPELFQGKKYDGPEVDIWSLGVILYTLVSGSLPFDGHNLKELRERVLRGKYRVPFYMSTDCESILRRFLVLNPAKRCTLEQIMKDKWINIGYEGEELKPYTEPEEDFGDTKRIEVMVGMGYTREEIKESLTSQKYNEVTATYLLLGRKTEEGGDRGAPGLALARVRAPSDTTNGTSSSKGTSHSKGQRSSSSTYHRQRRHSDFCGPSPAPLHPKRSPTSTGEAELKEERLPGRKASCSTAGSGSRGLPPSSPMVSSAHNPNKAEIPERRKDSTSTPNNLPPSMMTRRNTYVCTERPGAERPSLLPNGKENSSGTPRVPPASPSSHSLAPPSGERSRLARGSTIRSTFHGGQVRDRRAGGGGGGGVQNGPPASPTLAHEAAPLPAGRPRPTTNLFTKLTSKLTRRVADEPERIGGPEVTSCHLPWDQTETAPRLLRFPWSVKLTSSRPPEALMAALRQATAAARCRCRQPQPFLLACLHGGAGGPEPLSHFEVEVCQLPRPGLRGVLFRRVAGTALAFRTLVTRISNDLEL

[3] = biological target: T3, panel of 374 wild-type kinases (Homo sapiens, UniProt P53671); conditions: read-out: % Enzyme Activity (relative to DMSO controls), LIMK2
T3 construct: purchased Reaction Biology Corporation

[4] = biological target: T4, panel of 374 wild-type kinases (Homo sapiens, UniProt Q9BYT3); conditions: kinase STK33, read-out: % Enzyme Activity (relative to DMSO controls)
T4 construct: purchased Reaction Biology Corporation

[5] = biological target: T5, panel of 374 wild-type kinases (Homo sapiens, UniProt Q9HBY8); conditions: read-out: % Enzyme Activity (relative to DMSO controls), kinase SGK2
T5 construct: purchased Reaction Biology Corporation

[6] = biological target: T6, panel of 374 wild-type kinases (Homo sapiens, UniProt Q13163); conditions: read-out: % Enzyme Activity (relative to DMSO controls), MEK5
T6 construct: purchased Reaction Biology Corporation
T6 sequence (Q13163 1-448): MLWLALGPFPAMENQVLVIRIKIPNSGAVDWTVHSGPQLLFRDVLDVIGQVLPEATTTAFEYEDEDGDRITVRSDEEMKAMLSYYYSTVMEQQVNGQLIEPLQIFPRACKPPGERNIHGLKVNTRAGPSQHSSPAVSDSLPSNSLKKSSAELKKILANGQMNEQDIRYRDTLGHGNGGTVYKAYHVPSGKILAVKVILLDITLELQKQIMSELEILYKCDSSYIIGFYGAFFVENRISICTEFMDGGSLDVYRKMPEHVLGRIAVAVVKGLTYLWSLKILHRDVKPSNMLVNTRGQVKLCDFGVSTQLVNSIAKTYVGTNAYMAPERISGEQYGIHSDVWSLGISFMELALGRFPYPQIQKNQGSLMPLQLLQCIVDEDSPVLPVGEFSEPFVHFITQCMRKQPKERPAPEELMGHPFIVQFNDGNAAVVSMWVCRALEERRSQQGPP

T3 sequence (P53671 whole entry): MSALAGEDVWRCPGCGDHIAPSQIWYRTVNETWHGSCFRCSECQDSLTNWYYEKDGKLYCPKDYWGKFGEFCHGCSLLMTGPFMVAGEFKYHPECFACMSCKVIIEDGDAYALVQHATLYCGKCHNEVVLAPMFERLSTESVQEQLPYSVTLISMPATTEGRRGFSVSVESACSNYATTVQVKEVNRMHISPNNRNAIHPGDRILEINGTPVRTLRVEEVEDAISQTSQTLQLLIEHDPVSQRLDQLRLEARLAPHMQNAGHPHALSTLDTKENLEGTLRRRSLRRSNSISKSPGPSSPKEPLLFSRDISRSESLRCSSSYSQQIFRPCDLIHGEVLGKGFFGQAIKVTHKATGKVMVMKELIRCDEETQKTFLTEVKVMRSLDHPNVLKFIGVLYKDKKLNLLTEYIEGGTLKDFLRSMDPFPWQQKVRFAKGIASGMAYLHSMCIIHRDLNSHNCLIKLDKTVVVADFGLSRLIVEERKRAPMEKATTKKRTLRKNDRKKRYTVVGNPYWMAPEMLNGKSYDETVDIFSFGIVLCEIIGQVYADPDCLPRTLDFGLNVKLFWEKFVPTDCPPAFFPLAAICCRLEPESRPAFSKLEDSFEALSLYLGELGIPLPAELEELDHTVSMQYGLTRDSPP
T4 sequence (Q9BYT3 whole entry): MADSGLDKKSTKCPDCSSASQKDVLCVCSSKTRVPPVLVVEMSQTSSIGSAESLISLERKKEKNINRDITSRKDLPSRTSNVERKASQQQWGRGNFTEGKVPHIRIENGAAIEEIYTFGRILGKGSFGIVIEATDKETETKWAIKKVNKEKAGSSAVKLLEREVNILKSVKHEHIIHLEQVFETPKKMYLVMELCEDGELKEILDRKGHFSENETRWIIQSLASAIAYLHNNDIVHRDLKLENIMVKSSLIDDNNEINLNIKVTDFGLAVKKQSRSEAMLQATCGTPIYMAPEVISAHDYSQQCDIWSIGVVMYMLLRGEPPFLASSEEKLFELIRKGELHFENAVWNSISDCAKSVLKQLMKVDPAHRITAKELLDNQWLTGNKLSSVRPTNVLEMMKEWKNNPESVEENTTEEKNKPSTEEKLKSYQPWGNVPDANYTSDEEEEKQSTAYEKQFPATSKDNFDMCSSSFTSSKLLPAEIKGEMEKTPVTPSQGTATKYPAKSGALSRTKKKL
T5 sequence (Q9HBY8 whole entry): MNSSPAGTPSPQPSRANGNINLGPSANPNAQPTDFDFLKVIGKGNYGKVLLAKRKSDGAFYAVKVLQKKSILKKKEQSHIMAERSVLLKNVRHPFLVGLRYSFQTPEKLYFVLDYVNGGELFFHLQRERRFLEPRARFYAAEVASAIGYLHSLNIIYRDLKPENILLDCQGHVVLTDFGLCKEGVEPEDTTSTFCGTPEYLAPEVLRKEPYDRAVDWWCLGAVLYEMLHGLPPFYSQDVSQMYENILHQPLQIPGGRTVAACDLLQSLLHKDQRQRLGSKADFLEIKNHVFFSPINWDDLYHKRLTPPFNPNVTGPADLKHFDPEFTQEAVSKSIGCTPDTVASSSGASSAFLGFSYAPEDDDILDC

Compound	remaining activity at 5 µM [1] [%]	remaining activity at 5 µM [2] [%]	remaining activity at 5 µM [3] [%]	remaining activity at 5 µM [4] [%]	remaining activity at 5 µM [5] [%]	remaining activity at 5 µM [6] [%]	remaining activity at 10 µM ([1]; 10 uM) [%]	remaining activity at 10 µM ([2]; 10 uM) [%]	remaining activity at 10 µM ([3]; 10 uM) [%]	remaining activity at 10 µM ([4]; 10 uM) [%]	remaining activity at 10 µM ([5]; 10 uM) [%]	remaining activity at 10 µM ([6]; 10 uM) [%]
O=C(Nc1cnn(-c2csc(C(=O)NC3COC3)c2)c1)Nc1ccccc1Cl [Compound 17, 4-(4-(3-(2-chlorophenyl)ureido)-1H-pyrazol-1-yl)-N-(oxetan-3-yl)thiophene-2-carboxamide]	99.5	108	96.8	99.3	101	98.2						
O=C(Nc1cnn(-c2csc(C(=O)NC3COC3)c2)c1)Nc1c(F)cccc1Cl [Compound 25, 4-(4-(3-(2-chloro-6-fluorophenyl)ureido)-1H-pyrazol-1-yl)-N-(oxetan-3-yl)thiophene-2-carboxamide]	87.4	97.9	94	81.8	88.6	103						
Cc1sc(C(=O)NC2COC2)cc1-n1cc(NC(=O)Nc2c(F)cccc2Cl)cn1 [Compound 27, 4-(4-(3-(2-chloro-6-fluorophenyl)ureido)-1H-pyrazol-1-yl)-5-methyl-N-(oxetan-3-yl)thiophene-2-carboxamide]							85.2	108	113	87.6	97.2	96.8
